The text below walks through data of US11987588B2, “Modulators of the beta-3 adrenergic receptor useful for the treatment or prevention of heart failure and disorders related thereto” (Arena Pharmaceuticals, Inc., priority 2017, dated 2024).

The IC50 is the concentration needed to halve the response being measured.

The experiment deals with Beta-3 Adrenergic Receptor (Homo sapiens (Human), UniProt P13945). The experiment in a line: Homogeneous Time-Resolved Fluorescence (HTRF) cAMP antagonist assay, IC50 determination. In kind it is cell-based. The conditions noted are these: CHO-K1 cells stably expressing recombinant receptor, isoproterenol at EC90. Put shortly:
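CHO-K1 cells stably expressing receptor, 1500 cells/well, preincubated briefly with 10-point 5-fold compound series (top final typically 10 or 100 μM) in PBS with 1 mM IBMX, then challenged with isoproterenol at EC90 for 1 h at room temperature. cAMP read by HTRF against on-plate standard curve; IC50 from dose-response.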

Sequence of Beta-3 Adrenergic Receptor (P13945 whole entry, species assumed): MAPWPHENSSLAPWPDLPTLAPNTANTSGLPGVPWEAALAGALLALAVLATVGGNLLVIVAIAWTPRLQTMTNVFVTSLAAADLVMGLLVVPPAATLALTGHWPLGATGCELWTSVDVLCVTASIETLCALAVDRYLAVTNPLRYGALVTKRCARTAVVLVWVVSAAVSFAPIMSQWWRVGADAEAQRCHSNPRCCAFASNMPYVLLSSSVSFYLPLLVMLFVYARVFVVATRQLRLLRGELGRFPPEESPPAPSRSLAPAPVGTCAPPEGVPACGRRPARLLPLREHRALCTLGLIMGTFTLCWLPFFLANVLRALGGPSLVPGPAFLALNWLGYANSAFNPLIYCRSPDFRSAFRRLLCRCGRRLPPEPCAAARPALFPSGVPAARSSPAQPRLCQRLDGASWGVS

For the compound `CNS(=O)(=O)c1cccc(OC[C@@H](O)CNC2COC3(CCN(S(=O)(=O)c4cc(C)cc(C)c4)CC3)C2)c1` (stereo partly drawn) [Compound 23, 3-((2S)-3-(8-(3,5-dimethylphenylsulfonyl)-1-oxa-8-azaspiro[4.5]decan-3-ylamino)-2-hydroxypropoxy)-N-methylbenzenesulfonamide], the IC50 amounted to 13.8 nM.
As for `CCN(C(C)C)S(=O)(=O)c1cccc(OC[C@@H](O)CNC2COC3(CCN(S(=O)(=O)c4ccc5ccccc5c4)CC3)C2)c1` (stereo partly drawn) [Compound 7, N-ethyl-3-((2S)-2-hydroxy-3-(8-(naphthalen-2-ylsulfonyl)-1-oxa-8-azaspiro[4.5]decan-3-ylamino)propoxy)-N-isopropylbenzenesulfonamide], the figure is 285 nM; as for `CCNS(=O)(=O)c1cccc(OC[C@@H](O)CNC2COC3(CCN(S(=O)(=O)c4cnn(-c5ccccc5)c4C)CC3)C2)c1` (stereo partly drawn) [Compound 230, N-ethyl-3-((2S)-2-hydroxy-3-(8-(5-methyl-1-phenyl-1H-pyrazol-4-ylsulfonyl)-1-oxa-8-azaspiro[4.5]decan-3-ylamino)propoxy)benzenesulfonamide], 85.4 nM.
Under `Cc1ccc(F)c(S(=O)(=O)N2CCC3(CC2)CC(NC[C@H](O)COc2cccc(S(=O)(=O)N(C)C)c2)CO3)c1` (stereo partly drawn) [Compound 248, 3-((2S)-3-(8-(2-fluoro-5-methylphenylsulfonyl)-1-oxa-8-azaspiro[4.5]decan-3-ylamino)-2-hydroxypropoxy)-N,N-dimethylbenzenesulfonamide] stands 40.5 nM.
`CNS(=O)(=O)c1cccc(OC[C@@H](O)CNC2COC3(CCN(S(=O)(=O)C4CCCCC4)CC3)C2)c1` (stereo partly drawn) [Compound 125, 3-((2S)-3-(8-(cyclohexylsulfonyl)-1-oxa-8-azaspiro[4.5]decan-3-ylamino)-2-hydroxypropoxy)-N-methylbenzenesulfonamide]: the IC50 came out at 78.1 nM.
As to `CNS(=O)(=O)c1cccc(OC[C@@H](O)CN[C@H]2COC3(CCN(S(=O)(=O)c4ccc5[nH]ncc5c4OC)CC3)C2)c1` [Compound 508, 3-((S)-2-hydroxy-3-((R)-8-(4-methoxy-1H-indazol-5-ylsulfonyl)-1-oxa-8-azaspiro[4.5]decan-3-ylamino)propoxy)-N-methylbenzenesulfonamide], the IC50 is 211 nM.
Under `CNS(=O)(=O)c1cccc(OC[C@@H](O)CNC2COC3(CCN(S(=O)(=O)c4ccc(OC)c(F)c4)CC3)C2)c1` (stereo partly drawn) [Compound 195, 3-((2S)-3-(8-(3-fluoro-4-methoxyphenylsulfonyl)-1-oxa-8-azaspiro[4.5]decan-3-ylamino)-2-hydroxypropoxy)-N-methylbenzenesulfonamide] stands 23.4 nM.
For `CNS(=O)(=O)c1cccc(OC[C@@H](O)CN[C@H]2COC3(CCN(S(=O)(=O)c4ccc5c(c4)C(=O)C(=O)N5)CC3)C2)c1` [Compound 498, 3-((S)-3-((R)-8-(2,3-dioxoindolin-5-ylsulfonyl)-1-oxa-8-azaspiro[4.5]decan-3-ylamino)-2-hydroxypropoxy)-N-methylbenzenesulfonamide], the IC50 stood at 117 nM.
As to `CNS(=O)(=O)c1cccc(OC[C@@H](O)CN[C@H]2COC3(CCN(S(=O)(=O)c4cccc(-c5ccc(CNCC(C)C)cc5)c4)CC3)C2)c1` [Compound 363, 3-((S)-2-hydroxy-3-((R)-8-(4′-((isobutylamino)methyl)biphenyl-3-ylsulfonyl)-1-oxa-8-azaspiro[4.5]decan-3-ylamino)propoxy)-N-methylbenzenesulfonamide], the IC50 was 123 nM.
Take `CN(C)CCNS(=O)(=O)c1cccc(OC[C@@H](O)CNC2COC3(CCN(S(=O)(=O)c4ccc5ccccc5c4)CC3)C2)c1` (stereo partly drawn) [Compound 167, N-(2-(dimethylamino)ethyl)-3-((2S)-2-hydroxy-3-(8-(naphthalen-2-ylsulfonyl)-1-oxa-8-azaspiro[4.5]decan-3-ylamino)propoxy)benzenesulfonamide]: the IC50 amounted to 2150 nM.
Take `CNS(=O)(=O)c1cccc(OC[C@@H](O)CNC2COC3(CCN(S(=O)(=O)c4cccc(F)c4Cl)CC3)C2)c1` (stereo partly drawn) [Compound 199, 3-((2S)-3-(8-(2-chloro-3-fluorophenylsulfonyl)-1-oxa-8-azaspiro[4.5]decan-3-ylamino)-2-hydroxypropoxy)-N-methylbenzenesulfonamide]: the IC50 came to 15 nM.
`CNS(=O)(=O)c1cccc(OC[C@@H](O)CN[C@H]2COC3(CCN(c4ncc(C(=O)OC)cn4)CC3)C2)c1` [Compound 581, methyl 2-((R)-3-((S)-2-hydroxy-3-(3-(N-methylsulfamoyl)phenoxy)propylamino)-1-oxa-8-azaspiro[4.5]decan-8-yl)pyrimidine-5-carboxylate]: the IC50 amounted to 788 nM.
As for `CNS(=O)(=O)c1cccc(OC[C@@H](O)CNC2COC3(CCN(S(=O)(=O)c4cccc(-c5ccc(OCCCN(C)C)nc5)c4)CC3)C2)c1` (stereo partly drawn) [Compound 372, 3-((2S)-3-(8-(3-(6-(3-(dimethylamino)propoxy)pyridin-3-yl)phenylsulfonyl)-1-oxa-8-azaspiro[4.5]decan-3-ylamino)-2-hydroxypropoxy)-N-methylbenzenesulfonamide], the IC50 came to 41.8 nM.
As to `CNS(=O)(=O)c1cccc(OC[C@@H](O)CN[C@@H]2COC3(CCN(S(=O)(=O)c4cccc(-c5ccc(CN)cc5)c4OC)CC3)C2)c1` [Compound 448, 3-((S)-3-((S)-8-(4′-(aminomethyl)-2-methoxybiphenyl-3-ylsulfonyl)-1-oxa-8-azaspiro[4.5]decan-3-ylamino)-2-hydroxypropoxy)-N-methylbenzenesulfonamide], the IC50 was 32 nM.
As for `CCNS(=O)(=O)c1cccc(OC[C@@H](O)CNC2COC3(CCN(S(=O)(=O)c4cccc(-c5ccc(CC#N)cc5)c4)CC3)C2)c1` (stereo partly drawn) [Compound 214, 3-((2S)-3-(8-(4′-(cyanomethyl)biphenyl-3-ylsulfonyl)-1-oxa-8-azaspiro[4.5]decan-3-ylamino)-2-hydroxypropoxy)-N-ethylbenzenesulfonamide], the figure is 31.4 nM; as for `O=S(=O)(NCCCO)c1cccc(OC[C@@H](O)CNC2COC3(CCN(S(=O)(=O)c4ccc5ccccc5c4)CC3)C2)c1` (stereo partly drawn) [Compound 51, 3-((2S)-2-hydroxy-3-(8-(naphthalen-2-ylsulfonyl)-1-oxa-8-azaspiro[4.5]decan-3-ylamino)propoxy)-N-(3-hydroxypropyl)benzenesulfonamide], 58.5 nM; as for `CNS(=O)(=O)c1cccc(OC[C@@H](O)CN[C@@H]2COC3(CCN(S(=O)(=O)c4ccc5ncccc5c4)CC3)C2)c1` [Compound 343, 3-((S)-2-hydroxy-3-((S)-8-(quinolin-6-ylsulfonyl)-1-oxa-8-azaspiro[4.5]decan-3-ylamino)propoxy)-N-methylbenzenesulfonamide], 27.7 nM.
In the case of `CNS(=O)(=O)c1cccc(OC[C@@H](O)CNC2COC3(CCN(S(=O)(=O)c4ccc(-c5nn[nH]n5)cc4)CC3)C2)c1` (stereo partly drawn) [Compound 410, 3-((2S)-3-(8-(4-(2H-tetrazol-5-yl)phenylsulfonyl)-1-oxa-8-azaspiro[4.5]decan-3-ylamino)-2-hydroxypropoxy)-N-methylbenzenesulfonamide], the IC50 stood at 389 nM.
For the compound `CN1CCOc2ncc(S(=O)(=O)N3CCC4(CC3)C[C@@H](NC[C@H](O)COc3cccc(S(N)(=O)=O)c3)CO4)cc21` [Compound 458, 3-((S)-2-hydroxy-3-((R)-8-(1-methyl-2,3-dihydro-1H-pyrido[2,3-b][1,4]oxazin-7-ylsulfonyl)-1-oxa-8-azaspiro[4.5]decan-3-ylamino)propoxy)benzenesulfonamide], the 50% inhibitory concentration (IC50) worked out at 45.7 nM.
